From patent publication EP4722201A1, “3-PHENYLISOXAZOLINE-5-CARBOXAMIDE COMPOUND, AND PREPARATION METHOD THEREFOR, HERBICIDAL COMPOSITION THEREOF AND USE THEREOF” (Jiangsu Flag Chemical Industry Co., Ltd, priority 2023, dated 2024)

Tests used:
Test in all cases: Indoor herbicide activity determination, Seed Treatment; pre-emergence (soil spray)
Assay type in all cases: in vivo
[1] = system: Leptochloa chinensis
Method in brief: (§1)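 Readout is percent inhibition of fresh weight relative to control plants, determined 21 days after treatment. Soil was sprayed one day after sowing, in a spray tower at 300 mm height and 390 mL/min nozzle flow, onto sandy soil of pH 6.1 with 1% organic matter.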

[2] = system: Alopecurus japonicus
Method in brief: as §1

[3] = system: Digitaria sanguinalis; conditions: read-out: Herbicidal activities (inhibition rate) Digitaria sanguinalis; for inhibition at 120 g/ha: 120 g a.i./ha; for inhibition at 60 g/ha: 60 g a.i./ha
Method in brief: as §1

[4] = system: Lolium multiflorum
Method in brief: as §1

[5] = system: Cyperus iria; conditions: read-out: Herbicidal activities (inhibition rate) Cyperus iria; for inhibition at 120 g/ha: 120 g a.i./ha; for inhibition at 60 g/ha: 60 g a.i./ha
Method in brief: as §1

[6] = system: Alopecurus myosuroides
Method in brief: as §1

[7] = system: Aegilops tauschii; conditions: read-out: Herbicidal activities (inhibition rate) Aegilops tauschii; for inhibition at 120 g/ha: 120 g a.i./ha; for inhibition at 60 g/ha: 60 g a.i./ha
Method in brief: as §1

[8] = system: Eleusine indica; conditions: Dosage 120 g a.i./ha
Method in brief: as §1

[9] = system: Eclipta prostrata; conditions: 60 g a.i./ha, read-out: Herbicidal activities (inhibition rate) Eclipta prostrata
Method in brief: as §1

Row | Compound | Herbicidal activities, Leptochloa chinensis (inhibition rate class) ([1]; Dosage 240 g a.i./ha) | Herbicidal activities, Alopecurus japonicus (inhibition rate class) ([2]; Dosage 240 g a.i./ha) | inhibition at 120 g/ha [3] | Herbicidal activities, Lolium multiflorum (inhibition rate class) ([4]; Dosage 240 g a.i./ha) | inhibition at 120 g/ha [5] | Herbicidal activities, Alopecurus myosuroides (inhibition rate class) ([6]; Dosage 240 g a.i./ha) | inhibition at 120 g/ha [7] | Herbicidal activities, Leptochloa chinensis (inhibition rate class) ([1]; Dosage 120 g a.i./ha) | Herbicidal activities, Alopecurus japonicus (inhibition rate class) ([2]; Dosage 120 g a.i./ha) | inhibition at 60 g/ha [3] | Herbicidal activities, Lolium multiflorum (inhibition rate class) ([4]; Dosage 120 g a.i./ha) | Herbicidal activities, Alopecurus myosuroides (inhibition rate class) ([6]; Dosage 120 g a.i./ha) | inhibition at 60 g/ha [7] | Herbicidal activities, Eleusine indica (inhibition rate class) [8] | further results
1 | C[S+]([O-])CCOC(=O)C1CC(NC(=O)C2(C)CC(c3cc(F)cc(OC(F)(F)F)c3)=NO2)CO1 (centres unmarked) [I-383] | A (A indicates that the inhibition rate was greater than or equal to 80% to 100%) | A (A indicates that the inhibition rate was greater than or equal to 80% to 100%) | 80 to 100% | A (A indicates that the inhibition rate was greater than or equal to 80% to 100%) | 60 to 80% | A (A indicates that the inhibition rate was greater than or equal to 80% to 100%) | 80 to 100% |  |  |  |  |  |  |  | 
2 | CC[C@@H](C)OC(=O)[C@H]1C[C@@H](NC(=O)[C@@]2(C)CC(c3cc(F)cc(F)c3)=NO2)C1 [I-128] |  |  |  |  |  |  |  | A (A indicates that the inhibition rate was greater than or equal to 80% to 100%) | A (A indicates that the inhibition rate was greater than or equal to 80% to 100%) | 60 to 80% | A (A indicates that the inhibition rate was greater than or equal to 80% to 100%) | A (A indicates that the inhibition rate was greater than or equal to 80% to 100%) | 80 to 100% | A (A indicates that the inhibition rate was greater than or equal to 80% to 100%) | 
3 | COC(=O)[C@H]1C[C@@H](NC(=O)C2(C)CC(c3cc(F)cc(OC(F)(F)F)c3)=NO2)CO1 (mixture of isomers) [I-380] | A (A indicates that the inhibition rate was greater than or equal to 80% to 100%) | A (A indicates that the inhibition rate was greater than or equal to 80% to 100%) | 80 to 100% | A (A indicates that the inhibition rate was greater than or equal to 80% to 100%) | 80 to 100% | A (A indicates that the inhibition rate was greater than or equal to 80% to 100%) | 80 to 100% |  |  |  |  |  |  |  | 
4 | CC[C@H](C)OC(=O)[C@H]1C[C@@H](NC(=O)[C@@]2(C)CC(c3cc(F)cc(F)c3)=NO2)C1 [I-129] |  |  |  |  |  |  |  | B (B indicates that the inhibition rate was greater than or equal to 60% to less than 80%) | A (A indicates that the inhibition rate was greater than or equal to 80% to 100%) | 60 to 80% | A (A indicates that the inhibition rate was greater than or equal to 80% to 100%) | A (A indicates that the inhibition rate was greater than or equal to 80% to 100%) | 80 to 100% | A (A indicates that the inhibition rate was greater than or equal to 80% to 100%) | 
5 | C=C[C@]1(C(=O)N[C@H]2C=C[C@@H](C(=O)O[C@H](C)COC)C2)CC(c2cc(F)cc(OC(F)(F)F)c2)=NO1 [I-459] |  |  |  |  |  |  |  |  |  | 60 to 80% |  |  |  |  | Herbicidal activity (inhibition rate class), Leptochloa chinensis ([1]; Dosage 120 g a.i./ha): A (A indicates that the inhibition rate was greater than or equal to 80% to 100%); inhibition at 60 g/ha [9]: 60 to 80%; Herbicidal activity (inhibition rate class), Alopecurus japonicus ([2]; Dosage 120 g a.i./ha): A (A indicates that the inhibition rate was greater than or equal to 80% to 100%); Herbicidal activity (inhibition rate class), Lolium multiflorum ([4]; Dosage 120 g a.i./ha): A (A indicates that the inhibition rate was greater than or equal to 80% to 100%); inhibition at 60 g/ha [5]: 60 to 80%; Herbicidal activity (inhibition rate class), Alopecurus myosuroides ([6]; Dosage 120 g a.i./ha): A (A indicates that the inhibition rate was greater than or equal to 80% to 100%); Herbicidal activity (inhibition rate class), Eleusine indica [8]: A (A indicates that the inhibition rate was greater than or equal to 80% to 100%)
6 | COC(=O)C1CC(NC(=O)C2(C)CC(c3cc(F)cc(OC(F)F)c3)=NO2)CO1 (centres unmarked) [I-385] | A (A indicates that the inhibition rate was greater than or equal to 80% to 100%) | A (A indicates that the inhibition rate was greater than or equal to 80% to 100%) | 60 to 80% | B (B indicates that the inhibition rate was greater than or equal to 60% to less than 80%) |  | A (A indicates that the inhibition rate was greater than or equal to 80% to 100%) | 80 to 100% |  |  |  |  |  |  |  | 
7 | C=C[C@]1(C(=O)N[C@H]2C[C@@H](C(=O)OCC(F)(F)F)C2)CC(c2cc(F)cc(F)c2)=NO1 [I-15] |  |  |  |  |  |  |  | A (A indicates that the inhibition rate was greater than or equal to 80% to 100%) | A (A indicates that the inhibition rate was greater than or equal to 80% to 100%) | 60 to 80% | A (A indicates that the inhibition rate was greater than or equal to 80% to 100%) | A (A indicates that the inhibition rate was greater than or equal to 80% to 100%) | 80 to 100% | A (A indicates that the inhibition rate was greater than or equal to 80% to 100%) | 
8 | CC1(C(=O)NC2COC(C(=O)OCCS(C)(=O)=O)C2)CC(c2cc(F)cc(OC(F)(F)F)c2)=NO1 (centres unmarked) [I-384] | A (A indicates that the inhibition rate was greater than or equal to 80% to 100%) | A (A indicates that the inhibition rate was greater than or equal to 80% to 100%) | 80 to 100% | A (A indicates that the inhibition rate was greater than or equal to 80% to 100%) | 60 to 80% | A (A indicates that the inhibition rate was greater than or equal to 80% to 100%) | 80 to 100% |  |  |  |  |  |  |  | 
9 | C=C[C@]1(C(=O)N[C@H]2C=C[C@@H](C(=O)OCCCOC)C2)CC(c2cc(F)cc(C(F)(F)F)c2)=NO1 [I-436] |  |  |  |  |  |  |  | A (A indicates that the inhibition rate was greater than or equal to 80% to 100%) | A (A indicates that the inhibition rate was greater than or equal to 80% to 100%) | 80 to 100% | B (B indicates that the inhibition rate was greater than or equal to 60% to less than 80%) | A (A indicates that the inhibition rate was greater than or equal to 80% to 100%) |  | A (A indicates that the inhibition rate was greater than or equal to 80% to 100%) | inhibition at 60 g/ha [9]: 60 to 80%; inhibition at 60 g/ha [5]: 60 to 80%
10 | CSCCOC(=O)C1CC(NC(=O)C2(C)CC(c3cc(F)cc(OC(F)(F)F)c3)=NO2)CO1 (centres unmarked) [I-382] | A (A indicates that the inhibition rate was greater than or equal to 80% to 100%) | A (A indicates that the inhibition rate was greater than or equal to 80% to 100%) | 80 to 100% | A (A indicates that the inhibition rate was greater than or equal to 80% to 100%) | 80 to 100% | A (A indicates that the inhibition rate was greater than or equal to 80% to 100%) | 80 to 100% |  |  |  |  |  |  |  | 
